Patent US20230085307A1, “PYRIDAZINONE COMPOUND AND HERBICIDE” (NISSAN CHEMICAL CORPORATION, priority 2019, published 2023)

What follows are compounds tested on oval-leafed pondweed (assay: Test Example 1: herbicidal activity, application before weed generation under submerged conditions (Table 16, symbol C)). Settings: 320 g/ha applied herbicide.
Assay type: in vivo, oval-leafed pondweed (Monochoria vaginalis)
Outline: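 Alluvial soil was flooded to 4 cm depth, weed seeds were sown mixed and 2.5-leaf rice seedlings were transplanted. On sowing day, the compound's emulsion, diluted in water to a set dose, was applied to the water surface. Plants grew at 25–30 °C and were scored 0–5 after three weeks.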

Row | Compound | Herbicidal effect on C: oval-leafed pondweed (grade 0-5)
1 | COCCOC(=O)Oc1c(C)nn(C)c(=O)c1-c1c(-c2ccc(OC(F)F)cc2)sc2ccc(F)cc12 [2-295] | 2 (Herbicidal rate of 20% or more and less than 40%)

What follows are compounds tested on Japanese bulrush (assay: Test Example 2: herbicidal activity, application during weed generation under submerged conditions (Table 17, symbol B)). Settings: AAH 320 g/ha; application during weed generation, submerged conditions.
Assay type: in vivo, Japanese bulrush (Schoenoplectus juncoides)
Outline: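 3-wk visual-criteria score after one water-surface dose. Emulsion formulation, water-diluted to set rate; applied at 1–2 leaf stage; alluvial soil, 4 cm standing water; seeds co-sown; greenhouse 25–30° C.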

Row | Compound | herbicidal effect rating, B: Japanese bulrush
2 | COCCOC(=O)Oc1c(C)nn(C)c(=O)c1-c1c(-c2ccc(OC(F)F)cc2)sc2ccc(F)cc12 [2-295] | 3 (Herbicidal rate of 40% or more and less than 70%)

Each compound was assayed on southern crabgrass (assay: Test Example 4: herbicidal effect by soil treatment (Table 19, symbol F)). Settings: amount of applied herbicide 320 g/ha.
Assay type: in vivo, southern crabgrass (Digitaria ciliaris)
Outline: (§1)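 Step 1: sow seeds in sterilized diluvial soil, cover ~1.5 cm. Step 2: spray diluted emulsion onto soil surface at predetermined rate. Step 3: greenhouse, 25–30° C, three weeks. Step 4: grade effect on each plant by earlier criteria.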

Row | Compound | herbicidal effect on F: southern crabgrass
3 | COCCOC(=O)Oc1c(C)nn(C)c(=O)c1-c1c(-c2ccc(OC(F)F)cc2)sc2ccc(F)cc12 [2-295] | 5 (Herbicidal rate of 90% or more (almost completely withered))

These compounds were tested on green foxtail (assay: Test Example 4: herbicidal effect by soil treatment (Table 19, symbol G)). Settings: amount of applied herbicide 320 g/ha.
Assay type: in vivo, green foxtail (Setaria viridis)
Outline: as §1

Row | Compound | herbicidal effect on G: green foxtail
4 | COCCOC(=O)Oc1c(C)nn(C)c(=O)c1-c1c(-c2ccc(OC(F)F)cc2)sc2ccc(F)cc12 [2-295] | 5 (Herbicidal rate of 90% or more (almost completely withered))

The compounds below were run on barnyard grass (assay: Test Example 4: herbicidal effect by soil treatment (Table 19, symbol H)). Settings: amount of applied herbicide 320 g/ha.
Assay type: in vivo, barnyard grass (Echinochloa crus-galli)
Outline: as §1

Row | Compound | herbicidal effect on H: barnyard grass
5 | COCCOC(=O)Oc1c(C)nn(C)c(=O)c1-c1c(-c2ccc(OC(F)F)cc2)sc2ccc(F)cc12 [2-295] | 5 (Herbicidal rate of 90% or more (almost completely withered))

What follows are compounds tested on wild oat (assay: Test Example 4: herbicidal effect by soil treatment (Table 19, symbol I)). Settings: amount of applied herbicide 320 g/ha.
Assay type: in vivo, wild oat (Avena fatua)
Outline: as §1

Row | Compound | herbicidal effect on I: wild oat
6 | COCCOC(=O)Oc1c(C)nn(C)c(=O)c1-c1c(-c2ccc(OC(F)F)cc2)sc2ccc(F)cc12 [2-295] | 1 (Herbicidal rate of 5% or more and less than 20%)

These compounds were tested on blackgrass (assay: Test Example 4: herbicidal effect by soil treatment (Table 19, symbol J)). Settings: amount of applied herbicide 320 g/ha.
Assay type: in vivo, blackgrass (Alopecurus myosuroides)
Outline: as §1

Row | Compound | herbicidal effect on J: blackgrass
7 | COCCOC(=O)Oc1c(C)nn(C)c(=O)c1-c1c(-c2ccc(OC(F)F)cc2)sc2ccc(F)cc12 [2-295] | 4 (Herbicidal rate of 70% or more and less than 90%)

What follows are compounds tested on velvetleaf (assay: Test Example 4: herbicidal effect by soil treatment (Table 19, symbol M)). Settings: amount of applied herbicide 320 g/ha.
Assay type: in vivo, velvetleaf (Abutilon theophrasti)
Outline: as §1

Row | Compound | herbicidal effect on M: velvetleaf
8 | COCCOC(=O)Oc1c(C)nn(C)c(=O)c1-c1c(-c2ccc(OC(F)F)cc2)sc2ccc(F)cc12 [2-295] | 4 (Herbicidal rate of 70% or more and less than 90%)

These compounds were tested on lambsquarters (assay: Test Example 4: herbicidal effect by soil treatment (Table 19, symbol O)). Settings: amount of applied herbicide 320 g/ha.
Assay type: in vivo, lambsquarters (Chenopodium album)
Outline: as §1

Row | Compound | herbicidal effect on O: lambsquarters
9 | COCCOC(=O)Oc1c(C)nn(C)c(=O)c1-c1c(-c2ccc(OC(F)F)cc2)sc2ccc(F)cc12 [2-295] | 5 (Herbicidal rate of 90% or more (almost completely withered))

Each compound was assayed on chickweed (assay: Test Example 4: herbicidal effect by soil treatment (Table 19, symbol P)). Settings: amount of applied herbicide 320 g/ha.
Assay type: in vivo, common chickweed (Stellaria media)
Outline: as §1

Row | Compound | herbicidal effect on P: chickweed
10 | COCCOC(=O)Oc1c(C)nn(C)c(=O)c1-c1c(-c2ccc(OC(F)F)cc2)sc2ccc(F)cc12 [2-295] | 4 (Herbicidal rate of 70% or more and less than 90%)

The compounds below were run on persian speedwell (assay: Test Example 4: herbicidal effect by soil treatment (Table 19, symbol R)). Settings: amount of applied herbicide 320 g/ha.
Assay type: in vivo, Persian speedwell (Veronica persica)
Outline: as §1

Row | Compound | herbicidal effect on R: persian speedwell
11 | COCCOC(=O)Oc1c(C)nn(C)c(=O)c1-c1c(-c2ccc(OC(F)F)cc2)sc2ccc(F)cc12 [2-295] | 5 (Herbicidal rate of 90% or more (almost completely withered))

These compounds were tested on southern crabgrass (assay: Test Example 5: herbicidal effect by foliage application, plastic box (Table 20, symbol F)). Settings: foliage application, AAH 320 g/ha, evaluated three weeks after application.
Assay type: in vivo, southern crabgrass (Digitaria ciliaris)
Outline: (§2)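 Foliar spray test: emulsion formulation diluted in water to a set application rate, sprayed onto 14-day-old plants raised in diluvial soil at 25° C to 30° C under glass. Both herbicidal effect and crop effect rated visually three weeks later.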

Row | Compound | F: southern crabgrass, herbicidal effect (criteria 0-5)
12 | COCCOC(=O)Oc1c(C)nn(C)c(=O)c1-c1c(-c2ccc(OC(F)F)cc2)sc2ccc(F)cc12 [2-295] | 4 (Herbicidal rate of 70% or more and less than 90%)

The compounds below were run on windgrass (assay: Test Example 5: herbicidal effect by foliage application, plastic box (Table 20, symbol L)). Settings: foliage application, AAH 320 g/ha, evaluated three weeks after application.
Assay type: in vivo, windgrass (Apera spica-venti)
Outline: as §2

Row | Compound | L: windgrass, herbicidal effect (criteria 0-5)
13 | COCCOC(=O)Oc1c(C)nn(C)c(=O)c1-c1c(-c2ccc(OC(F)F)cc2)sc2ccc(F)cc12 [2-295] | 5 (Herbicidal rate of 90% or more (almost completely withered))

The compounds below were run on velvetleaf (assay: Test Example 5: herbicidal effect by foliage application, plastic box (Table 20, symbol M)). Settings: foliage application, AAH 320 g/ha, evaluated three weeks after application.
Assay type: in vivo, velvetleaf (Abutilon theophrasti)
Outline: as §2

Row | Compound | M: velvetleaf, herbicidal effect (criteria 0-5)
14 | COCCOC(=O)Oc1c(C)nn(C)c(=O)c1-c1c(-c2ccc(OC(F)F)cc2)sc2ccc(F)cc12 [2-295] | 5 (Herbicidal rate of 90% or more (almost completely withered))

These compounds were tested on lambsquarters (assay: Test Example 5: herbicidal effect by foliage application, plastic box (Table 20, symbol O)). Settings: foliage application, AAH 320 g/ha, evaluated three weeks after application.
Assay type: in vivo, lambsquarters (Chenopodium album)
Outline: as §2

Row | Compound | O: lambsquarters, herbicidal effect (criteria 0-5)
15 | COCCOC(=O)Oc1c(C)nn(C)c(=O)c1-c1c(-c2ccc(OC(F)F)cc2)sc2ccc(F)cc12 [2-295] | 5 (Herbicidal rate of 90% or more (almost completely withered))

These compounds were tested on chickweed (assay: Test Example 5: herbicidal effect by foliage application, plastic box (Table 20, symbol P)). Settings: foliage application, AAH 320 g/ha, evaluated three weeks after application.
Assay type: in vivo, common chickweed (Stellaria media)
Outline: as §2

Row | Compound | P: chickweed, herbicidal effect (criteria 0-5)
16 | COCCOC(=O)Oc1c(C)nn(C)c(=O)c1-c1c(-c2ccc(OC(F)F)cc2)sc2ccc(F)cc12 [2-295] | 5 (Herbicidal rate of 90% or more (almost completely withered))

Each compound was assayed on persian speedwell (assay: Test Example 5: herbicidal effect by foliage application, plastic box (Table 20, symbol R)). Settings: foliage application, AAH 320 g/ha, evaluated three weeks after application.
Assay type: in vivo, Persian speedwell (Veronica persica)
Outline: as §2

Row | Compound | R: persian speedwell, herbicidal effect (criteria 0-5)
17 | COCCOC(=O)Oc1c(C)nn(C)c(=O)c1-c1c(-c2ccc(OC(F)F)cc2)sc2ccc(F)cc12 [2-295] | 5 (Herbicidal rate of 90% or more (almost completely withered))
